Laboratory results taken from patent US8378117B2 (priority 2005, dated 2013).
Where two headings read alike, the source gives them in different places.

Assays:
CB2 receptor = molecular target: T1, CB2 receptor (Homo sapiens, UniProt P34972); test: Binding assay for CB2 agonists or inverse agonists (SK-N-MC membranes, [3H]-CP-55,940); conditions: for CB2 receptor binding percent inhibition: test concentration not stated
T1 construct: expressed in transfected cells
Protocol: (§1) The human CB1 and CB2 receptors were stably expressed in SK-N-MC cells transfected with pcDNA3 CB-1 (human) or pcDNA3 CB-2 (human). The cells were grown in T-180 cell culture flasks under standard cell culture conditions at 37° C. in a 5% CO2 atmosphere. The cells were harvested by trysinization and homogenized in a homogenization buffer (10 mM Tris, 0.2 mM MgCl2, 5 mM KCl, with protease inhibitors aprotinin, leupeptin, pepstatin A and bacitracin) and centrifuged (2000 g). The supernatant was then centrifuged in 2M sucrose (31,300 g) to produce a semi-purified membrane pellet. The pellet was resuspended in homogenization and stored at −80° C.
On the day of the assay, the pellet was thawed on ice and diluted in assay buffer (50 mM Tris-HCl, 5 mM MgCl2, 2.5 mM EDTA, 0.5 mg/mL fatty acid free bovine serum aldumin, pH 7.5). […] The plate was covered and incubated for 90 minutes at 30° C. The contents were then aspirated onto a Packard Unifilter GF/C filter bottom plate prewet with 0.5% polyethyleneimine. The wells of the polypropylene plate were rinsed and aspirated seven times with a 0.9% saline-0.5% Tween 20 solution. The Unifilter plate was dried, a scintillation cocktail was added to each well and the counts representing binding were quantitated in a TopCount scintillation counter.
(§2) For compounds tested, an IC50 binding value was obtained from percent inhibition studies in which various test concentrations were used. The binding value was calculated by linear regression.

CB1 receptor = molecular target: T2, CB1 receptor (Homo sapiens, UniProt P21554); test: Binding assay for CB1 agonists or inverse agonists (SK-N-MC membranes, [3H]-CP-55,940); conditions: for inhibition at 0.5 µM: read-out: CB1 receptor binding percent inhibition, test concentration 0.5 μM (footnote 10); for inhibition at 1 µM: read-out: CB1 receptor binding percent inhibition, test concentration 1 μM (footnote 1)
T2 construct: expressed in transfected cells
Protocol: as §1
On the day of the assay, the pellet was thawed on ice and diluted in assay buffer (50 mM Tris-HCl, 5 mM MgCl2, 2.5 mM EDTA, 0.5 mg/mL fatty acid free bovine serum aldumin, pH 7.5). The diluted membrane pellet was added with buffer, either a test compound or vehicle standard and the radioligand […] ([…]) to the wells of a 96-well polypropylene plate. Non-specific binding was measured in wells containing WIN 55,212 (10 uM). The plate was covered and incubated for 90 minutes at 30° C. The contents were then aspirated onto a Packard Unifilter GF/C filter bottom plate prewet with 0.5% polyethyleneimine. The wells of the polypropylene plate were rinsed and aspirated seven times with a 0.9% saline-0.5% Tween 20 solution. The Unifilter plate was dried, a scintillation cocktail was added to each well and the counts representing binding were quantitated in a TopCount scintillation counter.
as §2

[1] = Cannabinoid CB1 Receptor Binding IC50, calculated by linear regression from percent inhibition at various test concentrations

T1 sequence (P34972 whole entry): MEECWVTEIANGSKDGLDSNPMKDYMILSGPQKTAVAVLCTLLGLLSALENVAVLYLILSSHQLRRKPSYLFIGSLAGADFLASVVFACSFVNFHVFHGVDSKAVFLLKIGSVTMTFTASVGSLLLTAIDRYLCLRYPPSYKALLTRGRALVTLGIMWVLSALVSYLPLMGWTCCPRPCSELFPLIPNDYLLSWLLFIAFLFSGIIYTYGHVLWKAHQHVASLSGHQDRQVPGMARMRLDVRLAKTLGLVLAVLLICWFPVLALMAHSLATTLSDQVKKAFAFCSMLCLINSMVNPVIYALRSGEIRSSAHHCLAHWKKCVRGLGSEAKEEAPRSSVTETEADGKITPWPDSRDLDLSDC
T2 sequence (P21554 whole entry): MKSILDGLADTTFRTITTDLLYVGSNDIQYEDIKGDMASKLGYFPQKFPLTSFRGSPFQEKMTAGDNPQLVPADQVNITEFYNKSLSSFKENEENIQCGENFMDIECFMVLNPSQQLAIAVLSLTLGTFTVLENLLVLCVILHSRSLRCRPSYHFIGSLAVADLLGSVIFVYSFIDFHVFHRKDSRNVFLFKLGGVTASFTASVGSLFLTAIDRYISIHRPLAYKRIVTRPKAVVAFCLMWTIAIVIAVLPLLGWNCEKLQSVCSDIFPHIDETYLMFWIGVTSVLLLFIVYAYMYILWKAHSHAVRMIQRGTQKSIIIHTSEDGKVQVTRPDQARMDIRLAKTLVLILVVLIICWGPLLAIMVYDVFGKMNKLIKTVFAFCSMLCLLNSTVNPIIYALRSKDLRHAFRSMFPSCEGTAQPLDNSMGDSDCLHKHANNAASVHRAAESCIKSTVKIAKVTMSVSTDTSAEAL

O=C(N[C@@H]1c2ccccc2C[C@@H]1O)c1nn(C2CCCCC2)c2c1CCCCC2Cc1ccc(F)cc1 (relative stereo) [Cpd 121, (8S*)-1-cyclohexyl-8-(4-fluoro-benzyl)-1,4,5,6,7,8-hexahydro-cycloheptapyrazole-3-carboxylic acid [(1R,2S)-2-hydroxy-indan-1-yl]-amide]
CB2 receptor binding percent inhibition (CB2 receptor): 95% | IC50 (CB1 receptor; [1]): 400 nM | inhibition at 0.5 µM (CB1 receptor): 70% | inhibition at 1 µM (CB1 receptor): 80%

O=C(N[C@@H]1c2ccccc2C[C@@H]1O)c1nn(C2CCCCC2)c2c1CCCCC2Cc1cccc(F)c1 (single isomer, unassigned) [Cpd 115, (8S*)-1-cyclohexyl-8-(3-fluoro-benzyl)-1,4,5,6,7,8-hexahydro-cycloheptapyrazole-3-carboxylic acid [(1R,2S)-2-hydroxy-indan-1-yl]-amide]
CB2 receptor binding percent inhibition (CB2 receptor): 99% | IC50 (CB1 receptor; [1]): 500 nM | inhibition at 0.5 µM (CB1 receptor): 67% | CB1 receptor binding percent inhibition (CB1 receptor; test concentration 1 μM (footnote 1), 1 µM): 79%

O=C(N[C@@H](CO)c1ccccc1)c1nn(C2CCCCC2)c2c1CCCCC2Cc1ccc(F)cc1 (stereo in doubt) [Cpd 67, (8S*)-1-cyclohexyl-8-(4-fluoro-benzyl)-1,4,5,6,7,8-hexahydro-cycloheptapyrazole-3-carboxylic acid [(1R)-2-hydroxy-1-phenyl-ethyl]-amide]
CB2 receptor binding percent inhibition (CB2 receptor): 55% | inhibition at 1 µM (CB1 receptor): 44%

Cc1ccc(CC2CCCCc3c(C(=O)NC4C5(C)CCC(C5)C4(C)C)nn(-c4ccc(F)cc4)c32)cc1 (stereo not shown) [Cpd 1, 1-(4-fluoro-phenyl)-8-(4-methyl-benzyl)-1,4,5,6,7,8-hexahydro-cycloheptapyrazole-3-carboxylic acid (1,3,3-trimethyl-bicyclo[2.2.1]hept-2-yl)-amide]
IC50 (CB2 receptor; Cannabinoid CB2 Receptor Binding IC50, calculated by linear regression from percent inhibition at various test concentrations): 300 nM | IC50 (CB1 receptor; [1]): 200 nM

CC12CCC(C1)C(C)(C)[C@H]2NC(=O)c1nn(C2CCCCC2)c2c1CCCCC2Cc1ccc(Cl)cc1 (stereo partly drawn) [Cpd 2, 8-(4-chloro-benzyl)-1-cyclohexyl-1,4,5,6,7,8-hexahydro-cycloheptapyrazole-3-carboxylic acid [(2S)-1,3,3-trimethyl-bicyclo[2.2.1]hept-2-yl]-amide]
CB2 receptor binding percent inhibition (CB2 receptor): 53% | inhibition at 1 µM (CB1 receptor): 21%

CC12CCC(C1)C(C)(C)[C@H]2NC(=O)c1nn(C2CCCCC2)c2c1CCCCC2Cc1cccc(Cl)c1 (stereo partly drawn) [Cpd 4, 8-(3-chloro-benzyl)-1-cyclohexyl-1,4,5,6,7,8-hexahydro-cycloheptapyrazole-3-carboxylic acid [(2S)-1,3,3-trimethyl-bicyclo[2.2.1]hept-2-yl]-amide]
CB2 receptor binding percent inhibition (CB2 receptor): 36% | inhibition at 1 µM (CB1 receptor): 51%

C[C@H](NC(=O)c1nn(C2CCCCC2)c2c1CCCCC2Cc1ccc(Cl)cc1)c1ccccc1 (stereo partly drawn) [Cpd 5, 8-(4-chloro-benzyl)-1-cyclohexyl-1,4,5,6,7,8-hexahydro-cycloheptapyrazole-3-carboxylic acid [(1S)-1-phenyl-ethyl]-amide]
CB2 receptor binding percent inhibition (CB2 receptor): 34% | inhibition at 1 µM (CB1 receptor): 22%

C[C@@H](NC(=O)c1nn(C2CCCCC2)c2c1CCCCC2Cc1ccc(Cl)cc1)c1ccccc1 (stereo partly drawn) [Cpd 6, 8-(4-chloro-benzyl)-1-cyclohexyl-1,4,5,6,7,8-hexahydro-cycloheptapyrazole-3-carboxylic acid [(1R)-1-phenyl-ethyl]-amide]
CB2 receptor binding percent inhibition (CB2 receptor): 4% | inhibition at 1 µM (CB1 receptor): 26%

C[C@H](NC(=O)c1nn(C2CCCCC2)c2c1CCCCC2Cc1cccc(Cl)c1)c1ccccc1 (stereo partly drawn) [Cpd 7, 8-(3-chloro-benzyl)-1-cyclohexyl-1,4,5,6,7,8-hexahydro-cycloheptapyrazole-3-carboxylic acid [(1S)-1-phenyl-ethyl]-amide]
CB2 receptor binding percent inhibition (CB2 receptor): 12% | IC50 (CB1 receptor; calculated by linear regression from percent inhibition at various test concentrations, read-out: Cannabinoid CB1 Receptor Binding IC50): 1100 nM | inhibition at 1 µM (CB1 receptor): 68%

O=C(NC12CC3CC(CC1C3)C2)c1nn(C2CCCCC2)c2c1CCCCC2Cc1cccc(Cl)c1 (stereo not shown) [Cpd 9, 8-(3-chloro-benzyl)-1-cyclohexyl-1,4,5,6,7,8-hexahydro-cycloheptapyrazole-3-carboxylic acid (hexahydro-2,5-methano-pentalen-3a-yl)-amide]
CB2 receptor binding percent inhibition (CB2 receptor): 4% | inhibition at 1 µM (CB1 receptor): 18%

CC(NC(=O)c1nn(C2CCCCC2)c2c1CCCCC2Cc1cccc(Cl)c1)C12CC3CC(CC(C3)C1)C2 (stereo not shown) [Cpd 10, 8-(3-chloro-benzyl)-1-cyclohexyl-1,4,5,6,7,8-hexahydro-cycloheptapyrazole-3-carboxylic acid (1-adamantan-1-yl-ethyl)-amide]
CB2 receptor binding percent inhibition (CB2 receptor): 8% | inhibition at 1 µM (CB1 receptor): 0%

CC12CCC(C1)C(C)(C)[C@H]2NC(=O)c1nn(C2CCCCC2)c2c1CCCCC2Cc1ccccc1Cl (stereo partly drawn) [Cpd 11, 8-(2-chloro-benzyl)-1-cyclohexyl-1,4,5,6,7,8-hexahydro-cycloheptapyrazole-3-carboxylic acid [(2S)-1,3,3-trimethyl-bicyclo[2.2.1]hept-2-yl]-amide]
CB2 receptor binding percent inhibition (CB2 receptor): 21% | inhibition at 1 µM (CB1 receptor): 17%

O=C(NC1C2CC3CC(C2)CC1C3)c1nn(C2CCCCC2)c2c1CCCCC2Cc1cccc(Cl)c1 (stereo not shown) [Cpd 12, 8-(3-chloro-benzyl)-1-cyclohexyl-1,4,5,6,7,8-hexahydro-cycloheptapyrazole-3-carboxylic acid adamantan-2-ylamide]
CB2 receptor binding percent inhibition (CB2 receptor): 31% | inhibition at 1 µM (CB1 receptor): 36%

O=C(NC1C2CC3CC(C2)CC1C3)c1nn(C2CCCCC2)c2c1CCCCC2Cc1ccccc1Cl (stereo not shown) [Cpd 13, 8-(2-chloro-benzyl)-1-cyclohexyl-1,4,5,6,7,8-hexahydro-cycloheptapyrazole-3-carboxylic acid adamantan-2-ylamide]
CB2 receptor binding percent inhibition (CB2 receptor): 14% | inhibition at 1 µM (CB1 receptor): 0%

CC12CCC(C1)C(C)(C)[C@H]2NC(=O)c1nn(-c2ccc(Cl)cc2Cl)c2c1CCCCC2Cc1ccc(Cl)cc1 (stereo partly drawn) [Cpd 14, 8-(4-chloro-benzyl)-1-(2,4-dichloro-phenyl)-1,4,5,6,7,8-hexahydro-cycloheptapyrazole-3-carboxylic acid [(2S)-1,3,3-trimethyl-bicyclo[2.2.1]hept-2-yl]-amide]
CB2 receptor binding percent inhibition (CB2 receptor): 7% | inhibition at 1 µM (CB1 receptor): 29%

CC12CCC(C1)C(C)(C)[C@H]2NC(=O)c1nn(-c2ccc(Cl)cc2Cl)c2c1CCCCC2Cc1cccc(Cl)c1 (stereo partly drawn) [Cpd 15, 8-(3-chloro-benzyl)-1-(2,4-dichloro-phenyl)-1,4,5,6,7,8-hexahydro-cycloheptapyrazole-3-carboxylic acid [(2S)-1,3,3-trimethyl-bicyclo[2.2.1]hept-2-yl]-amide]
CB2 receptor binding percent inhibition (CB2 receptor): 54% | inhibition at 1 µM (CB1 receptor): 58%

O=C(NC1C2CC3CC(C2)CC1C3)c1nn(C2CCCCC2)c2c1CCCCC2Cc1ccc(Cl)cc1 (stereo not shown) [Cpd 16, 8-(4-chloro-benzyl)-1-cyclohexyl-1,4,5,6,7,8-hexahydro-cycloheptapyrazole-3-carboxylic acid adamantan-2-ylamide]
CB2 receptor binding percent inhibition (CB2 receptor): 68% | inhibition at 1 µM (CB1 receptor): 21%

O=C(NC1C2CC3CC(C2)CC1C3)c1nn(-c2ccc(Cl)cc2Cl)c2c1CCCCC2Cc1cccc(Cl)c1 (stereo not shown) [Cpd 17, 8-(3-chloro-benzyl)-1-(2,4-dichloro-phenyl)-1,4,5,6,7,8-hexahydro-cycloheptapyrazole-3-carboxylic acid adamantan-2-ylamide]
CB2 receptor binding percent inhibition (CB2 receptor): 11% | inhibition at 1 µM (CB1 receptor): 37%

O=C(NC1C2CC3CC(C2)CC1C3)c1nn(-c2ccc(Cl)cc2Cl)c2c1CCCCC2Cc1ccc(Cl)cc1 (stereo not shown) [Cpd 18, 8-(4-chloro-benzyl)-1-(2,4-dichloro-phenyl)-1,4,5,6,7,8-hexahydro-cycloheptapyrazole-3-carboxylic acid adamantan-2-ylamide]
CB2 receptor binding percent inhibition (CB2 receptor): 23% | inhibition at 1 µM (CB1 receptor): 3%

O=C(NC12CC3CC(CC(C3)C1)C2)c1nn(C2CCCCC2)c2c1CCCCC2Cc1cccc(Cl)c1 (stereo not shown) [Cpd 19, 8-(3-chloro-benzyl)-1-cyclohexyl-1,4,5,6,7,8-hexahydro-cycloheptapyrazole-3-carboxylic acid adamantan-1-ylamide]
CB2 receptor binding percent inhibition (CB2 receptor): 51% | inhibition at 1 µM (CB1 receptor): 18%

COc1ccc(/C=C2\CCCCc3c(C(=O)N[C@@H]4CCC[C@H]4O)nn(-c4ccc(Cl)cc4Cl)c32)cc1 [Cpd 221, (8E)-1-(2,4-dichloro-phenyl)-8-(4-methoxy-benzylidene)-1,4,5,6,7,8-hexahydro-cycloheptapyrazole-3-carboxylic acid [(1R,2R)-2-hydroxy-cyclopentyl)-amide]
inhibition at 0.2 µM (CB2 receptor; test concentration 0.2 μM (footnote 2), read-out: CB2 receptor binding percent inhibition): 24%
